Target: T1, HPK1 (Homo sapiens, UniProt Q92918)
T1 construct: A HiBiT tag was introduced by CRISPR on the N terminus of HPK1 in Jurkat cells; host or cells: Jurkat cells (ATCC TIB-152), monoclonal line with CRISPR knock-in of HiBiT at the endogenous HPK1 locus
Test: HPK1 Cellular HiBit Degradation Assay
Format: cell-based
Settings: HiBiT HPK1 Jurkat cells, 24 hrs; for DC50: concentration at which 50% of HPK1 was remaining, read-out: DC50 Category; for Dmax: Jurkat, maximum degradation vs DMSO vehicle control, read-out: Dmax Category
Method in brief: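 HPK1 levels are read by HiBiT luminescence after 24 h exposure of HiBiT-knock-in Jurkat cells to compound at 10 uM–0.1 nM final (11 points). Relative to DMSO (100%), DC50 is the concentration leaving 50% HPK1 from a variable-slope fit, and Dmax is 100 minus minimum remaining. Viability checked in-plate.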

T1 sequence (Q92918 whole entry): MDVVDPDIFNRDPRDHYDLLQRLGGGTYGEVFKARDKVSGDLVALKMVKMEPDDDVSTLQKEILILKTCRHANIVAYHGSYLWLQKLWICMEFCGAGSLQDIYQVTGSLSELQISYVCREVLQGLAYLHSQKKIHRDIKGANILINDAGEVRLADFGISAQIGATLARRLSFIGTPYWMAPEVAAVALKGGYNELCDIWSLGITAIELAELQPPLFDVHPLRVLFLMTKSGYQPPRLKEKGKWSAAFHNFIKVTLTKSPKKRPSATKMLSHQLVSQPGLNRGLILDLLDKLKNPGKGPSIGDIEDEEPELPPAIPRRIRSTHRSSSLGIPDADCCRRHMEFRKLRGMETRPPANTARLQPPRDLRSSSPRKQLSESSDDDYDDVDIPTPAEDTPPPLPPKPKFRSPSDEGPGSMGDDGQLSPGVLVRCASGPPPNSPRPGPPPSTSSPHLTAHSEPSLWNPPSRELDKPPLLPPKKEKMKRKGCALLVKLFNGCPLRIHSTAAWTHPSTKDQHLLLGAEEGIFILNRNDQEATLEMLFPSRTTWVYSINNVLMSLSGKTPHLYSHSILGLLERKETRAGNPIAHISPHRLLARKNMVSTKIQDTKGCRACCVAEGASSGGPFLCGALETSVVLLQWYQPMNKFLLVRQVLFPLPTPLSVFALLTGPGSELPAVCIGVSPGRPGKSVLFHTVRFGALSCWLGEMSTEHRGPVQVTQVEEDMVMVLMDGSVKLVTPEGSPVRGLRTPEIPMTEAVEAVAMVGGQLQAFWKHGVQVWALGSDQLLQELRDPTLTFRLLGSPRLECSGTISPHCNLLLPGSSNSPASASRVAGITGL

| Compound | DC50 | Dmax |
| --- | --- | --- |
| CC(C)n1cnc2cc(-c3ccc4c(c3)N([C@H]3C[C@@H](N5CCCCC5)C3)C(=O)C43CCN(C(=O)C45CN(C(=O)C6CCN(c7ccc(C8CCC(=O)NC8=O)cn7)CC6)CC(F)(C4)C5)CC3)nc(NC3CC3)c21 (mixture of isomers) [Example 279, (3RS)-3-(6-{4-[1-({6-[4-(cyclopropylamino)-3-(propan-2-yl)-3H-imidazo[4,5-c]pyridin-6-yl]-2-oxo-1-[(1S,3S)-3-(piperidin-1-yl)cyclobutyl]-1,2-dihydrospiro[indole-3,4′-piperidin]-1′-yl}carbonyl)-5-fluoro-3-azabicyclo[3.1.1]heptane-3-carbonyl]piperidin-1-yl}pyridin-3-yl)piperidine-2,6-dione] | < 100 nM | 70 to 85% |
| CC(C)n1cnc2cc(-c3ccc4c(c3)N([C@H]3C[C@@H](N5CCCCC5)C3)C(=O)C43CCN(C(=O)C4(C)CCN(C(=O)[C@H]5CC[C@H](Oc6ccc(C7CCC(=O)NC7=O)cn6)CC5)CC4)CC3)nc(Nc3ccccc3F)c21 (mixture of isomers) [Example 105, (3RS)-3-(6-{1[(1R,4R)-4-{4-[(6-{4-[(2-fluorophenyl)amino]-3-(propan-2-yl)-3H-imidazo[4,5-c]pyridin-6-yl}-2-oxo-1-[(1S,3S)-3-(piperidin-1-yl)cyclobutyl]-1,2-dihydrospiro[indole-3,4′-piperidin]-1′-yl)carbonyl]-4-methylpiperidine-1-carbonyl}cyclohexyl]oxy}pyridin-3-yl)piperidine-2,6-dione] | < 100 nM | > 85% |
| CC(C)n1cnc2cc(-c3ccc4c(c3)N([C@H]3C[C@@H](N5CCCCC5)C3)C(=O)C43CCN(C(=O)C4CN(C(=O)C5CCN(c6ccc(C7CCC(=O)NC7=O)cn6)CC5)CCC4(F)F)CC3)nc(NC3CC3)c21 (mixture of isomers) [Example 285, (3RS)-3-(6-{4-[3-({6-[4-(cyclopropylamino)-3-(propan-2-yl)-3H-imidazo[4,5-c]pyridin-6-yl]-2-oxo-1-[(1S,3S)-3-(piperidin-1-yl)cyclobutyl]-1,2-dihydrospiro[indole-3,4′-piperidin]-1′-yl}carbonyl)-4,4-Difluoropiperidine-1-carbonyl]piperidin-1-yl}pyridin-3-yl)piperidine-2,6-dione] | 100 to 500 nM | 50 to 70% |
| CC(C)n1cnc2cc(-c3ccc4c(c3)N([C@H]3C[C@@H](N5CCCCC5)C3)C(=O)C43CCN(C(=O)C4CCN(C(=O)[C@H]5CC[C@H](Oc6ccc(C7CCC(=O)NC7=O)cc6)CC5)CC4)CC3)nc(Nc3ccccc3F)c21 (mixture of isomers) [Example 60, (3RS)-3-(4-{[(1R,4R)-4-{4-[(6-{4-[(2-fluorophenyl)amino]-3-(propan-2-yl)-3H-imidazo[4,5-c]pyridin-6-yl}-2-oxo-1-[(1S,3S)-3-(piperidin-1-yl)cyclobutyl]-1,2-dihydrospiro[indole-3,4′-piperidin]-1′-yl)carbonyl]piperidine-1-carbonyl}cyclohexyl]oxy}phenyl)piperidine-2,6-dione] | < 100 nM | 70 to 85% |
| CC(C)n1cnc2cc(-c3ccc4c(c3)N([C@H]3C[C@@H](N5CCCCC5)C3)C(=O)C43CCN(C(=O)C4(C)CCN(C(=O)C5CCN(c6ccc(C7CCC(=O)NC7=O)c(F)c6)CC5)CC4)CC3)nc(NC3CC3)c21 (mixture of isomers) [Example 210, (3RS)-3-(4-{4-[4-({6-[4-(cyclopropylamino)-3-(propan-2-yl)-3H-imidazo[4,5-c]pyridin-6-yl]-2-oxo-1-[(1S,3S)-3-(piperidin-1-yl)cyclobutyl]-1,2-dihydrospiro[indole-3,4′-piperidin]-1′-yl}carbonyl)-4-methylpiperidine-1-carbonyl]piperidin-1-yl}-2-Fluorophenyl)piperidine-2,6-dione] | < 100 nM | 70 to 85% |
| CC(C)n1cnc2cc(-c3ccc4c(c3)N([C@H]3C[C@@H](N5CCCCC5)C3)C(=O)C43CCN(C(=O)C4(C)CCN(C(=O)C5CCN(c6ccc(C7CCC(=O)NC7=O)cn6)CC5)CC4)CC3)nc(Oc3ccccc3F)c21 (stereo partly drawn) [Example 164, 3-(6-{4-[4-({6-[4-(2-fluorophenoxy)-3-(propan-2-yl)-3H-imidazo[4,5-c]pyridin-6-yl]-2-oxo-1-[(1S,3S)-3-(piperidin-1-yl)cyclobutyl]-1,2-dihydrospiro[indole-3,4′-piperidin]-1′-yl}carbonyl)-4-methylpiperidine-1-carbonyl]piperidin-1-yl}pyridin-3-yl)piperidine-2,6-dione] | 100 to 500 nM | > 85% |
| CC(C)n1cnc2cc(-c3ccc4c(c3)N([C@H]3C[C@@H](N5CCCCC5)C3)C(=O)C43CCN(C(=O)[C@H]4CN(C(=O)C5CCN(c6ccc(C7CCC(=O)NC7=O)cc6)CC5)CC4(C)C)CC3)nc(NC3CC3)c21 (mixture of isomers) [Example 252, (3RS)-3-(4-{4-[(4R)-4-({6-[4-(cyclopropylamino)-3-(propan-2-yl)-3H-imidazo[4,5-c]pyridin-6-yl]-2-oxo-1-[(1S,3S)-3-(piperidin-1-yl)cyclobutyl]-1,2-dihydrospiro[indole-3,4′-piperidin]-1′-yl}carbonyl)-3,3-dimethylpyrrolidine-1-carbonyl]piperidin-1-yl}phenyl)piperidine-2,6-dione] | < 100 nM | 70 to 85% |
| Cc1cc(N2CCC(C(=O)N3CCC(C)(C(=O)N4CCC5(CC4)C(=O)N([C@H]4C[C@@H](N6CCCCC6)C4)c4cc(-c6cc7ncn(C(C)C)c7c(NC7CC7)n6)ccc45)CC3)CC2)ncc1C1CCC(=O)NC1=O (mixture of isomers) [Example 189, (3RS)-3-(6-{4-[4-({6-[4-(cyclopropylamino)-3-isopropylimidazo[4,5-c]pyridin-6-yl]-2-oxo-1-[(1S,3S)-3-(piperidin-1-yl)cyclobutyl]spiro[indole-3,4′-piperidin]-1′-yl}carbonyl)-4-methylpiperidine-1-carbonyl]piperidin-1-yl}-4-Methylpyridin-3-yl)piperidine-2,6-dione] | < 100 nM | 70 to 85% |
| CC(C)n1cnc2cc(-c3ccc4c(c3)N([C@H]3C[C@@H](N5CCCCC5)C3)C(=O)C43CCN(C(=O)[C@@H]4CCN(C(=O)C5CCN(c6ncc(C7CCC(=O)NC7=O)cn6)CC5)C4)CC3)nc(Nc3ccccc3F)c21 (stereo partly drawn) [Example 158, 3-(2-(4-((R)-3-(6-(4-((2-fluorophenyl)amino)-3-isopropyl-3H-imidazo[4,5-c]pyridin-6-yl)-2-oxo-1-((1S,3S)-3-(piperidin-1-yl)cyclobutyl)spiro[indoline-3,4′-piperidine]-1′-carbonyl)pyrrolidine-1-carbonyl)piperidin-1-yl)pyrimidin-5-yl)piperidine-2,6-dione] | < 100 nM | 70 to 85% |
| CC(C)n1cnc2cc(-c3ccc4c(c3)N([C@H]3C[C@@H](N5CCCCC5)C3)C(=O)C43CCN(C(=O)c4ccc(C(=O)N5CCN(c6ccc(C7CCC(=O)NC7=O)cn6)C[C@H]5C)cc4)CC3)nc(Nc3ccccc3F)c21 (mixture of isomers) [Example 100, (3RS)-3-{6-[(3R)-4-{4-[(6-{4-[(2-fluorophenyl)amino]-3-(propan-2-yl)-3H-imidazo[4,5-c]pyridin-6-yl}-2-oxo-1-[(1S,3S)-3-(piperidin-1-yl)cyclobutyl]-1,2-dihydrospiro[indole-3,4′-piperidin]-1′-yl)carbonyl]benzoyl}-3-methylpiperazin-1-yl]pyridin-3-yl}piperidine-2,6-dione] | 100 to 500 nM | 70 to 85% |

From patent US12091426B2, “Bifunctional degraders of hematopoietic progenitor kinase and therapeutic uses thereof” (Nurix Therapeutics, Inc., priority 2021, dated 2024)
